According to patent US10927117B2 (BEIGENE SWITZERLAND GMBH, priority 2016, dated 2021):

What was measured:
[1] = tested on: Waldenstrom's Macroglobulinemia (WM); assay: Phase 1 trial in patients with Waldenstrom's Macroglobulinemia (WM); type: in vivo, human
Method: The dose-escalation component of the trail tested total daily doses ranging from 40 mg to 320 mg, and the ongoing dose-expansion phase is testing doses of 160 mg twice a day (BID) or 320 mg once a day (QD). As of Mar. 31, 2017, 48 patients with WM were enrolled in the study. Responses were determined according to the modified Sixth International Workshop on WM (IWWM) criteria.

[2] = tested on: Mino cells (MCL cell line); assay: Tumor cell proliferation, CellTiter-Glo, Mino; type: cell-based; details: Homo sapiens, 144 h, 6-day exposure, mean of 3 independent assays, read-out: Potency IC50
Method: 3 MCL cell lines (Rec-1, Mino and JEKO-1) and an ABC type diffuse large B-cell lymphoma cell line (TMD8) were used in this study. Cell lines were maintained in RPMI-1640 supplemented with 10% fetal bovine serum/FBS (Thermo Scientific); 100 units/ml penicillin (Gibco) and 0.1 mg/ml streptomycin (Gibco) and kept at 37° C. in a humidified atmosphere of 5% CO2 in air. Cell lines were reinstated from frozen stocks that were laid down within 30 passages from the original cells purchased.
The growth-inhibitory activity of compounds in Rec-1, Mino, JEKO-1 and TMD-8 cells was determined using CellTiter-Glo luminescent cell viability assay (Promega). The number of cells seeded per well of a 96-well plate was optimized for each cell line to ensure logarithmic growth over 6 days treatment period. Cells were treated in triplicate with a 10-point dilution series. […] Mixture was mixed on an orbital shaker for 2 minutes to allow cell lysis, followed by 10 minutes incubation at room temperature to allow development and stabilization of luminescent signal, which corresponded to quantity of ATP and thus the quantity of metabolically active cells. Luminescent signal was measured using PHERAstar FS reader (BMG Labtech). IC50 values for cell viability were determined with GraphPad Prism software and were the mean of 3 independent assays.

[3] = tested on: systemic REC-1 MCL engrafts; assay: Efficacy study in systemic REC-1 xenograft model; type: in vivo, NOD/SCID mice; details: different dose levels BID p.o., 71 days
Method: Animals were pre-treated with cyclophosphamide (prepared in saline, 150 mpk i.p.) and disulfiram (prepared in 0.8% TW-80 in saline, 125 mpk p.o., one hour after each dose of cyclophosphamide) once daily for two days. Animals were then inoculated with REC-1 cells 24 hours after the second dose of cyclophosphamide. On the day of implantation, cell culture medium was replaced with fresh medium. Four hours later, media was removed and cells were collected as described above. Cells were re-suspended in cold (4° C.) PBS to give a final concentration of 1×10^8 cells/ml. Resuspended cells were placed on ice prior to implantation. Each animal was injected intravenously via tail vein with 1×10^7 cells in […] of cell suspension.
For in vivo efficacy studies, starting from day 8 after cell inoculation, animals were randomly assigned into desired number of groups with 10 mice per group. […] Body weight was assessed immediately before dosing and volume dosed was adjusted accordingly. Body weight was recorded twice weekly (changed to three times per week from day 33). […] In the case of severe toxic effect, such as loss of movement, mice were euthanized and scored as death.
For Data Analysis: Survival analysis was performed by Kaplan-Meier method. […] For each group, median survival time (MST), range of survival time (RST) with 95% confidence interval and increase in life-span (ILS) were calculated. […]

[4] = Pharmacokinetics in rats (LC-MS/MS); type: in vivo, Sprague-Dawley rats

## C=CC(=O)N1CCC([C@@H]2CCNc3c(C(N)=O)c(-c4ccc(Oc5ccccc5)cc4)nn32)CC1 [Compound 1, (S)-7-(1-acryloylpiperidin-4-yl)-2-(4-phenoxyphenyl)-4,5,6,7-tetra-hydropyrazolo[1,5-a]pyrimidine-3-carboxamide]
[1]
  discontinuation for Compound 1-related toxicity: no discontinuation
  events leading to treatment discontinuation: Three events
  serious AEs assessed to be possibly related: Five
[1]; 42 evaluable patients
  major response rate: 76%
  partial responses: 33%
[1]; 42 evaluable patients, median follow-up 12.3 months
  overall response rate (ORR): 90%
[1]; 48 patients
  AE anemia: 15%
  AE constipation: 25%
  AE cough: 15%
  AE diarrhea: 19%
  AE epistaxis: 19%
  AE headache: 15%
  AE nausea: 17%
  AE neutropenia: 13%
  AE rash: 13%
  AE upper respiratory tract infection: 31%
  grade 3 or 4 anemia: 8%
  grade 3 or 4 diarrhea: 2%
  grade 3 or 4 headache: 2%
  grade 3 or 4 neutropenia: 8%
[1]; 48 patients, any attribution
  AE petechiae/purpura/contusion: 35%
[1]; all grade 1 or 2
  cases of atrial fibrillation: three cases
[1]; hemothorax
  serious hemorrhage: one case

## C=CC(=O)N1CCC([C@@H]2CCNc3c(C(N)=O)c(-c4ccc(Oc5ccccc5)cc4)nn32)CC1 [Crystalline Form A, (S)-7-(1-acryloylpiperidin-4-yl)-2-(4-phenoxyphenyl)-4,5,6,7-tetra-hydropyrazolo[1,5-a]pyrimidine-3-carboxamide]
[2]
  IC50: 3.8 nM
[3]
  anti-tumor activity (overall survival): dose-dependent anti-tumor activity
[4]; female rats
  linearity of kinetics over the dose range: linear
[4]; male and female rats
  accumulation following multiple oral dosing: no statistically significant accumulation
[4]; male rats
  linearity of kinetics: not as good
[4]; rats
  absorption: quickly absorbed
  oral bioavailability: good oral bioavailability
  plasma clearance (CL): high plasma clearance
